Values joined by “and” are separate entries in the source; they are usually repeats but may differ in a detail not shown here. Equal values may be shown once.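 Following 48 hours of exposure in 96-well plates, responses at five concentrations were used to interpolate endpoints linearly. GI50 = concentration required for 50% inhibition of growth. TGI is the concentration that stops growth completely.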
Assays:
Assay in all cases: DTP human tumour cell line panel, 48 h
[1] = tested on: HCT-15 colon
[2] = tested on: SW-620 colon
[3] = tested on: HOP-62 NSCLC
[4] = tested on: NCI-H23 lung
[5] = tested on: NCI-H522 lung
[6] = tested on: CCRF-CEM leukemia
[7] = tested on: TK-10 renal
[8] = tested on: MOLT-4 leukemia
[9] = tested on: SF-295 CNS
[10] = tested on: SN12C renal

SMILES	GI50 [1] [µM]	GI50 [2] [µM]	GI50 [3] [µM]	GI50 [4] [µM]	GI50 [5] [µM]	GI50 [6] [µM]	GI50 [7]	GI50 [8] [µM]	GI50 [9] [µM]	GI50 [10] [µM]	TGI [1] [µM]	TGI [2] [µM]	TGI [3] [µM]	TGI [4] [µM]	TGI [5] [µM]	TGI [6] [µM]	TGI [7] [µM]	TGI [8] [µM]	TGI [9] [µM]	TGI [10] [µM]
CSC1SCC2C(=O)N(C)C(C(C)C)C(=O)OCC(NC(=O)c3cnc4ccccc4n3)C(=O)NC(C)C(=O)N(C)C1C(=O)N(C)C(C(C)C)C(=O)OCC(NC(=O)c1cnc3ccccc3n1)C(=O)NC(C)C(=O)N2C (stereo not drawn)	0.00322	< 0.001	< 0.001	< 0.001	< 0.001	< 0.001	< 0.001 µM and 0.0075 µM	< 0.001	< 0.001	< 0.001	–	–	–	–	–	–	–	–	–	–
C#CCN(Cc1nc2cc(C(F)(F)F)ccc2nc1-c1ccccc1)c1ccc(F)cc1	29.5	26.4	34.7	> 100	22.4	27.1	19.2 µM	36.5	51.4	30.8	> 100	> 100	> 100	> 100	> 100	> 100	59	> 100	> 100	96
COc1cc(/C=C2\Cc3ccccc3C2=O)cc(OC)c1OC	–	–	–	–	–	–	–	–	–	–	> 100	> 100	> 100	> 100	> 100	> 100	> 100	> 100	> 100	> 100
CC(C)(C)C1CCC(=O)C(C(O)CC2CC(=O)N(c3ccccc3)C(=O)C2)C1 (stereo not drawn)	–	–	–	–	–	–	–	–	–	–	> 100	> 100	> 100	> 100	> 100	> 100	> 100	> 100	> 100	> 100
Cc1cc(C)c(O)c(CNCCCNCc2cc(C)cc(C)c2O)c1	2.01	3.19	6.68	7.46	3.41	3.82	6.16 µM	3.14	1.87	5.23	4.66	11	21.8	21.2	14.1	15.3	20.6	10.2	3.81	18.8
CC(=O)Oc1cc(Cl)c(OC(C)=O)c2c(OC(C)=O)c(C)c(O[Si](C)(C)C(C)(C)C)cc12	–	–	–	–	–	–	–	–	–	–	20.3	8.85	34	17.1	19	13.5	17.6	24.8	23	23.1
COCC(=O)NC/C=C/c1ccc2ncnc(Nc3ccc(Oc4ccc(C)nc4)c(C)c3)c2c1	9.36	17.4	22.4	17.4	3.4	14	7.52 µM	13.8	12.5	12	74.2	40.9	71	55.4	25.8	> 79.9	53.9	53.8	38.1	35.7
CCCc1n(Cc2ccc3ccccc3n2)cc[n+]1Cc1ccc2ccccc2c1	12	1.91	1.63	0.479	0.249	0.688	1.21 µM	0.708	2.06	0.478	25.4	11.7	5.38	10.6	1.13	6.1	2.81	6.08	5.76	3.51
CN1CCN(Cc2ccc(NC(=O)c3cccc(C#Cc4c(N)ncc5ccc(F)cc45)c3)cc2C(F)(F)F)CC1	0.621	0.645	0.795	0.865	0.756	0.989	1.14 µM	0.681	0.917	0.663	1.41	1.39	1.65	1.67	1.53	2.58	2.35	1.63	1.78	1.44
C[C@@H]1OC(=O)NN=C1c1ccc(-c2ccc(F)cc2)c(C(F)(F)F)c1	4.6	10.2	10.7	7.17	2.72	8.25	1.65 µM	5.27	5.49	5.63	17.9	25.3	26.2	21.2	14.5	> 100	19.6	33.4	19.2	21.8
O=C(Nc1ccc(N2CCNCC2)cn1)c1[nH]ncc1Nc1ncnc2sccc12	8.3	1.54	2.99	2.02	1.87	1.25	3.62 µM	1.99	11.9	4.27	> 100	3.19	14.7	4.75	4.36	6.97	14.8	7.64	28.9	18.8
O=C1c2ccccc2-c2c1c1ccc([N+](=O)[O-])cc1c(=O)n2CCCn1ccnc1	1.06	–	0.173	0.119	1.08	–	1.16 µM	2.12	0.306	0.0153	3.15	0.529	0.708	0.292	5.68	0.785	9.31	4.64	2.29	0.0378
Cn1cc2ccccc2c1-c1nc(F)nc(Nc2ccc(N)cc2)n1	–	–	–	–	–	–	–	–	–	–	26.3	35	55.8	29.3	28.9	67.5	> 100	65.5	50.4	47.4
Cc1nc(-n2nc(-c3ccccc3)cc2-c2ccccc2)sc1C(=O)/C=C/c1ccc(Cl)cc1	–	–	–	–	–	–	–	–	–	–	> 100	61.1	34.4	34	25.9	78.1	> 100	41	30.5	> 100
CCN(CC)c1ccc(/C=N/NC(=O)c2ccccc2Nc2ccnc(C(F)(F)F)c2)c(O)c1	0.0457	0.407	0.121	0.528	0.287	0.055	0.365 µM	0.102	0.184	0.278	> 100	> 100	5.35	> 100	3.55	1.35	> 67.4	4.2	6.27	> 100
NC(Cc1c[nH]c2cc(F)ccc12)C(=O)O (stereo not drawn)	888	1480	961	1010	773	1240	> 2500 µM	1340	502	1330	> 2500	> 2500	> 2500	> 2500	2280	> 2500	> 2500	> 2500	> 2500	> 2500

From PubChem BioAssay (NCI)
